{
  "source": "patent US20250064789A1",
  "about": "“KETOAMIDE DERIVATIVES AND PHARMACEUTICAL USES THEREOF” (priority 2022, published 2025)",
  "key": {"[1]": {"assay": "Metabolic stability using human liver microsomes", "format": "in vitro ADME", "conditions": "pH 7.4, NADPH, 37° C., read-out: Human liver microsomes T1/2"}, "human thrombin": {"biological_target": "human thrombin (Homo sapiens (Human), UniProt P00734)", "assay": "Human protease biochemical activity assay: Thrombin activity testing kit", "description": "(§1) The biochemical activity of compounds against human proteases was determined using Cathepsin K inhibitor screening kit (K150-100), Cathepsin B inhibitor screening kit (K147-100), Thrombin activity testing kit (K373-100), Caspase-2 inhibitor screening kit (K152-100), and Cathepsin D inhibitor screening kit (K148-100) according to the instructions of the kits (Biovision, USA). All experiments were carried out in triplicate. All experimental data were analyzed using GraphPad Prism software."}, "human cathepsin K": {"biological_target": "human cathepsin K (Homo sapiens (Human), UniProt P43235)", "sequence (P43235 115-329)": "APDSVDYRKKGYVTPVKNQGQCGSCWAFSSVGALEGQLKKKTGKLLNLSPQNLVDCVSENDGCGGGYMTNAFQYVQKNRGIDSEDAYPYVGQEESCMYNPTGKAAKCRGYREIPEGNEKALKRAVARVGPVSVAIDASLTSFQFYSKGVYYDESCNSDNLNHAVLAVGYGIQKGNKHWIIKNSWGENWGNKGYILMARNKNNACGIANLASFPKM", "assay": "Human protease biochemical activity assay: Cathepsin K inhibitor screening kit", "description": "as §1"}, "human cathepsin B": {"biological_target": "human cathepsin B (Homo sapiens (Human), UniProt P07858)", "assay": "Human protease biochemical activity assay: Cathepsin B inhibitor screening kit", "description": "as §1"}, "human caspase 2": {"biological_target": "human caspase 2 (Homo sapiens (Human), UniProt P42575)", "sequence (P42575 170-325)": "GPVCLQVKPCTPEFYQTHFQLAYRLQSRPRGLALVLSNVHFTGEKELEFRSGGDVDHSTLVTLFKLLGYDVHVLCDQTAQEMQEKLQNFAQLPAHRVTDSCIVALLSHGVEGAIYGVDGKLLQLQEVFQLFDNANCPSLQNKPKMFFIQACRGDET", "sequence (P42575 348-452)": "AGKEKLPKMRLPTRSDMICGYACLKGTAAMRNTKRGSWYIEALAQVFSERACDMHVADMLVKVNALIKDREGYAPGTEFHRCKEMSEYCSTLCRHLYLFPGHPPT", "assay": "Human protease biochemical activity assay: Caspase-2 inhibitor screening kit", "description": "as §1"}, "human cathepsin D": {"biological_target": "human cathepsin D (Homo sapiens (Human), UniProt P07339)", "sequence (P07339 65-412)": "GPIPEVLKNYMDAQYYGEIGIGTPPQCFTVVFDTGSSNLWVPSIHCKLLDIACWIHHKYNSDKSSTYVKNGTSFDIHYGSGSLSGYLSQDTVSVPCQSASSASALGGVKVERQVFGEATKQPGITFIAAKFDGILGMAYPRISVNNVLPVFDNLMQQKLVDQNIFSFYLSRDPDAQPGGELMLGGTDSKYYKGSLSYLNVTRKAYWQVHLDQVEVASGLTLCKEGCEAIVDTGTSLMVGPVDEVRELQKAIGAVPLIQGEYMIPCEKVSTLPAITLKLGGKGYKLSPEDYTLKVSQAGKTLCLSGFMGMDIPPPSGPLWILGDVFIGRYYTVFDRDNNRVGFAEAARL", "assay": "Human protease biochemical activity assay: Cathepsin D inhibitor screening kit", "description": "as §1"}, "MERS-CoV": {"tested_on": "MERS-CoV", "format": "cell-based"}, "SARS-CoV-1": {"tested_on": "SARS-CoV-1", "format": "cell-based"}, "[2]": {"tested_on": "SARS-CoV-2 Omicron (B.1.1.529) BA.2", "assay": "Antiviral activity by plaque method in Vero E6-TMPRSS2 cells: SARS-CoV-2 Omicron BA.2", "format": "cell-based"}, "[3]": {"tested_on": "SARS-CoV-2 Omicron (B.1.1.529) BA.5", "assay": "Antiviral activity by plaque method in Vero E6-TMPRSS2 cells: SARS-CoV-2 Omicron BA.5", "format": "cell-based"}, "[4]": {"tested_on": "SARS-CoV-2 Omicron (B.1.1.529) BA.2", "design": "species or system K18-hACE2 transgenic mice", "conditions": "mouse, in vivo"}, "in vivo [5]": {"assay": "in vivo", "format": "in vivo, ICR mice", "conditions": "for MRT inf: read-out: MRTINF—obs"}, "in vivo [6]": {"assay": "in vivo", "format": "in vivo, beagle dogs", "conditions": "for MRT inf: read-out: MRTINF—obs", "description": "Male ICR mice (6-8 weeks old, weighing 16-25 g), male beagle dogs (1-2 years old, weighing 9-12 kg), or male cynomolgus monkeys (6-7 years old, weighing 6-8 kg) were randomly divided into groups, with three animals for each group, and a series of test compounds were administered orally (p.o.) or intravenously (i.v.) according to the protocol in following Table 10.\nThe solution for gavage and intravenous administration was prepared with DMSO/HS15/PEG400/NaCl (5/3/40/52, […]). The administration time was recorded, and for each sample, approximately 0.20 mL of blood was collected by jugular vein blood collection or other appropriate methods at the pre-determined time points. The blood sample was anticoagulated with heparin sodium, and after collection, the blood was placed on ice. The sample was centrifuged to separate the plasma within 1 h (centrifugation conditions: 6800 g, 6 min, 2-8° C.). Plasma samples were stored in a −80° C. freezer before analysis. The grouping and blood collection time points are shown in Table 4, with 3 animals at each time point."}, "in vivo [7]": {"assay": "in vivo", "format": "in vivo, cynomolgus monkeys", "conditions": "for MRT inf: read-out: MRTINF—obs"}, "in vivo [8]": {"assay": "in vivo", "conditions": "male, Sprague-Dawley, rat"}, "[9]": {"biological_target": "hERG potassium ion channels (Homo sapiens (Human), UniProt Q12809)", "sequence (Q12809 whole entry, looked up)": "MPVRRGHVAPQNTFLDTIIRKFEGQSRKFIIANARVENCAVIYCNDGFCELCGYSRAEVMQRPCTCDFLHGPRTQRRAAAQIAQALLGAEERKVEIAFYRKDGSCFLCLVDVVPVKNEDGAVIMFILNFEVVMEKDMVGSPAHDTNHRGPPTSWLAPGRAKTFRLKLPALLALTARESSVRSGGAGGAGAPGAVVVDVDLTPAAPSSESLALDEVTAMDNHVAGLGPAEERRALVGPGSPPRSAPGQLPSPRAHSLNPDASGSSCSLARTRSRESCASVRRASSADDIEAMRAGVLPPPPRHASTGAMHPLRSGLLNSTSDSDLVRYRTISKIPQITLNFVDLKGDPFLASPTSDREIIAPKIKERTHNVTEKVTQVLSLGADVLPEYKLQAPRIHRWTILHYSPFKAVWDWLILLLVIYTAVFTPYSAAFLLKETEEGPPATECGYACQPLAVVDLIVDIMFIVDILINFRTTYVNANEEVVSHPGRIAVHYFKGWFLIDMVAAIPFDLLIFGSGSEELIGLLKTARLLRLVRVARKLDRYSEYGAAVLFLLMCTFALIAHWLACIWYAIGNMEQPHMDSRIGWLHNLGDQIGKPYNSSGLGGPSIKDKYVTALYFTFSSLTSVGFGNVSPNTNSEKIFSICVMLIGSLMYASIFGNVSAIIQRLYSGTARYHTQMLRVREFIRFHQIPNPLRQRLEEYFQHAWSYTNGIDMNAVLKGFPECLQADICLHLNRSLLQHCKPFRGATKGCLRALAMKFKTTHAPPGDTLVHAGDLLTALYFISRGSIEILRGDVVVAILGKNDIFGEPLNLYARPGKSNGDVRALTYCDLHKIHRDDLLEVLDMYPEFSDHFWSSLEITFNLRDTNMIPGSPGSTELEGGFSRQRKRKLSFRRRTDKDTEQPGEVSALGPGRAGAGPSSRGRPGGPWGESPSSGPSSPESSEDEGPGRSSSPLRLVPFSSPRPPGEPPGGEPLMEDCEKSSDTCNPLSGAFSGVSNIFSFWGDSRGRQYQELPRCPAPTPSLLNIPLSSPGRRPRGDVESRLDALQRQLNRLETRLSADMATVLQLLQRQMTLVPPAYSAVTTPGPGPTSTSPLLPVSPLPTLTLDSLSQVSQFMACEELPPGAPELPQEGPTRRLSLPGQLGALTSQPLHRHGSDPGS", "assay": "hERG potassium current, whole cell patch clamp in HEK-293-hERG cells", "conditions": "30 μM"}, "[10]": {"assay": "Preliminary evaluation of in vivo safety (acute and general toxicity test)", "conditions": "p.o.; 1000 mg/kg single-dose; 800, 600, 400 mg/kg twice a day for 14 consecutive days"}, "[11]": {"conditions": "male, mouse, in vivo, iv, ICR mice, i.v. 1 mg/kg"}, "[12]": {"conditions": "male, dog, in vivo, po, beagle dogs, p.o. 10 mg/kg"}, "[13]": {"conditions": "male, cynomolgus monkey, in vivo, iv, cynomolgus monkeys, i.v. 1 mg/kg"}},
  "note": "Like-named read-outs stand apart in the source and are kept apart here.",
  "data": [
    {"smiles": "COC[C@@H](NC(=O)C1CCCC(F)(F)C1)C(=O)N[C@H](Cc1ccccc1)C(=O)C(=O)NCc1nccs1", "note": "(stereo partly drawn) [Compound 398, N—((R)-1-(((R)-3,4-dioxo-1-phenyl-4-((thiazole-2-ylmethyl)amino)butan-2-yl)amino)-3-methoxy-1-oxopropan-2-yl)-3,3-difluorocyclohexane-1-formamide]", "values": [
      {"measurement": "half-life at 1 µM", "setting": "[1]", "result": 35.3, "unit": "min"},
      {"measurement": "IC50", "setting": "human thrombin", "result": "> 100", "unit": "µM"},
      {"measurement": "IC50", "setting": "human cathepsin K", "result": "> 100", "unit": "µM"},
      {"measurement": "IC50", "setting": "human cathepsin B", "result": "> 100", "unit": "µM"},
      {"measurement": "IC50", "setting": "human caspase 2", "result": "> 100", "unit": "µM"},
      {"measurement": "IC50", "setting": "human cathepsin D", "result": "> 100", "unit": "µM"},
      {"measurement": "anti-viral activity, times higher than Nirmatrelvir (PF-07321332)", "setting": "MERS-CoV", "result": 1.79, "unit": "times"},
      {"measurement": "anti-viral activity, times higher than Nirmatrelvir (PF-07321332)", "setting": "SARS-CoV-1", "result": 17.14, "unit": "times"},
      {"measurement": "anti-viral activity, times higher than Nirmatrelvir (PF-07321332)", "setting": "[2]", "result": 2.82, "unit": "times"},
      {"measurement": "anti-viral activity, times higher than Nirmatrelvir (PF-07321332)", "setting": "[3]", "result": 4.00, "unit": "times"},
      {"measurement": "infectious viral load in the lungs by plaque assay (in words)", "setting": "[4]", "result": "effectively inhibited the production of infectious viral particles in the lungs"},
      {"measurement": "inhibition of viral subgenome mRNA (sgRNA) in the lungs", "setting": "[4]", "result": 337, "unit": "times"},
      {"measurement": "lung histopathology, H&E staining (in words)", "setting": "[4]", "result": "scattered inflammatory cell infiltration was occasionally observed"},
      {"measurement": "reduction of sgRNA copies in the lungs", "setting": "[4]", "result": 12, "unit": "times"},
      {"measurement": "reduction of sgRNA copy in the lungs compared with mice treated with Nirmatrelvir", "setting": "[4]", "result": "four times"},
      {"measurement": "reduction of vRNA copies in the lungs", "setting": "[4]", "result": 16, "unit": "times"},
      {"measurement": "reduction of vRNA copy in the lungs compared with mice treated with Nirmatrelvir", "setting": "[4]", "result": "four times"},
      {"measurement": "reduction of viral genomic RNA (vRNA) in the lungs", "setting": "[4]", "result": 179, "unit": "times"},
      {"measurement": "pharmacokinetic properties in mice (in words)", "setting": "in vivo [5]; i.v. 1 mg/kg, p.o. 150 mg/kg", "result": "good pharmacokinetic properties"},
      {"measurement": "Tmax", "setting": "in vivo [5]; [11]", "result": 4.8, "unit": "min"},
      {"measurement": "MRT inf", "setting": "in vivo [5]; [11]", "result": "10.2 ± 1.8", "unit": "min"},
      {"measurement": "MRT inf", "setting": "in vivo [5]; male, mouse, in vivo, po, ICR mice, p.o. 150 mg/kg", "result": "217 ± 70.8", "unit": "min"},
      {"measurement": "Vssobs", "setting": "in vivo [6]; beagle dogs, i.v. 1 mg/kg", "result": "1.41964 ± 0.16026", "unit": "L/kg"},
      {"measurement": "pharmacokinetic properties in beagle dogs (in words)", "setting": "in vivo [6]; i.v. 1 mg/kg, p.o. 10 mg/kg", "result": "good pharmacokinetic properties"},
      {"measurement": "MRT inf", "setting": "in vivo [6]; male, dog, in vivo, iv, beagle dogs, i.v. 1 mg/kg", "result": "28.2 ± 3", "unit": "min"},
      {"measurement": "Tmax", "setting": "in vivo [6]; [12]", "result": 60, "unit": "min"},
      {"measurement": "MRT inf", "setting": "in vivo [6]; [12]", "result": "128 ± 10.8", "unit": "min"},
      {"measurement": "Vssobs", "setting": "in vivo [7]; cynomolgus monkeys, i.v. 1 mg/kg", "result": "2.0658 ± 0.37439", "unit": "L/kg"},
      {"measurement": "pharmacokinetic properties in cynomolgus monkeys (in words)", "setting": "in vivo [7]; i.v. 1 mg/kg, p.o. 10 mg/kg", "result": "good pharmacokinetic properties"},
      {"measurement": "Tmax", "setting": "in vivo [7]; [13]", "result": 4.8, "unit": "min"},
      {"measurement": "clearance", "setting": "in vivo [7]; [13]", "result": "2000 ± 257", "unit": "mL/min/kg"},
      {"measurement": "MRT inf", "setting": "in vivo [7]; [13]", "result": "54 ± 10.8", "unit": "min"},
      {"measurement": "MRT inf", "setting": "in vivo [7]; male, cynomolgus monkey, in vivo, po, cynomolgus monkeys, p.o. 10 mg/kg", "result": "283 ± 53.4", "unit": "min"},
      {"measurement": "MRT inf", "setting": "in vivo [8]; iv, 1 mg/kg", "result": "140 ± 13.2", "unit": "min"},
      {"measurement": "Tmax", "setting": "in vivo [8]; iv, 1 mg/kg", "result": 4.8, "unit": "min"},
      {"measurement": "MRT inf", "setting": "in vivo [8]; po, 10 mg/kg", "result": "396 ± 53.4", "unit": "min"},
      {"measurement": "Tmax", "setting": "in vivo [8]; po, 10 mg/kg", "result": "240 ± 120", "unit": "min"},
      {"measurement": "The average inhibition rate on hERG current", "setting": "[9]", "result": 1.28, "unit": "%"},
      {"measurement": "body weight and general condition during the administration period", "setting": "[10]", "result": "1. During the administration period, no abnormal body"}
    ]}
  ]
}
